Source: ChEMBL document CHEMBL5625196, “Cell-active, irreversible covalent inhibitors that selectively target the catalytic lysine of EGFR by using fluorosulfate-based SuFEx chemistry” (Eur J Med Chem, 2023)

Legend:
physchem [1] = conditions: PBS
physchem [2] = conditions: cell-culture medium
[3] = AUC (0 to t) in Sprague-Dawley rat at 2 mg/kg, iv measured after 24 hrs by LC-MS/MS analysis; assay type: ADME, organism-based; conditions: in vivo
[4] = AUC (0 to infinity) in Sprague-Dawley rat at 2 mg/kg, iv measured after 24 hrs by LC-MS/MS analysis; assay type: ADME, organism-based; conditions: in vivo
[5] = Half-life in Sprague-Dawley rat at 2 mg/kg, iv measured after 24 hrs by LC-MS/MS analysis; assay type: ADME, organism-based; conditions: in vivo
[6] = Apparent volume of distribution in Sprague-Dawley rat at 2 mg/kg, iv measured after 24 hrs by LC-MS/MS analysis; assay type: ADME, organism-based; conditions: in vivo, read-out: Vz
[7] = Clearance in Sprague-Dawley rat at 2 mg/kg, iv measured after 24 hrs by LC-MS/MS analysis; assay type: ADME, organism-based; conditions: in vivo
[8] = Volume of distribution at steady state in Sprague-Dawley rat at 2 mg/kg, iv measured after 24 hrs by LC-MS/MS analysis; assay type: ADME, organism-based; conditions: in vivo, read-out: Vdss
[9] = MRT in Sprague-Dawley rat at 2 mg/kg, iv measured after 24 hrs by LC-MS/MS analysis; assay type: ADME, organism-based; conditions: in vivo
[10] = AUC (0 to t) in Sprague-Dawley rat at 5 mg/kg, po measured after 24 hrs by LC-MS/MS analysis; assay type: ADME, organism-based; conditions: in vivo
[11] = AUC (0 to infinity) in Sprague-Dawley rat at 5 mg/kg, po measured after 24 hrs by LC-MS/MS analysis; assay type: ADME, organism-based; conditions: in vivo
[12] = Half-life in Sprague-Dawley rat at 5 mg/kg, po measured after 24 hrs by LC-MS/MS analysis; assay type: ADME, organism-based; conditions: in vivo
[13] = MRT in Sprague-Dawley rat at 5 mg/kg, po measured after 24 hrs by LC-MS/MS analysis; assay type: ADME, organism-based; conditions: in vivo
[14] = Tmax in Sprague-Dawley rat at 5 mg/kg, po measured after 24 hrs by LC-MS/MS analysis; assay type: ADME, organism-based; conditions: in vivo
[15] = Cmax in Sprague-Dawley rat at 5 mg/kg, po measured after 24 hrs by LC-MS/MS analysis; assay type: ADME, organism-based; conditions: in vivo
[16] = Oral bioavailability in Sprague-Dawley rat at 5 mg/kg measured after 24 hrs by LC-MS/MS analysis; assay type: ADME, organism-based; conditions: in vivo
in vitro [17] = conditions: mouse, mouse liver microsomes
in vitro [18] = conditions: dog, MDCK-MDR1
in vitro [19] = conditions: dog, MDCK-MDR1; remark: listed apart in the source
in vitro [20] = conditions: dog, MDCK-MDR1; remark: listed apart in the source
in vitro [21] = conditions: dog, MDCK-MDR1; remark: listed apart in the source
physchem [22] = conditions: PBS; remark: listed apart in the source
physchem [23] = conditions: PBS; remark: listed apart in the source
[24] = dog, mdck-mdr1, 10 µM

Question: With `C=CS(=O)(=O)Nc1cccc(Nc2ncnc3cc(OCCOC)c(OCCOC)cc23)c1` as the molecule, how does the half-life (physchem [1]) read?
Answer: Its half-life is over 24 h.

Question: And the half-life (physchem [2])?
Answer: Its half-life is over 24 h.

Question: For `COCCOc1cc2ncnc(Nc3cccc(OS(=O)(=O)F)c3)c2cc1OCCOC`, which AUC(0-t) at 24 h [3] is on record?
Answer: Its AUC(0-t) at 24 h is 1920 ng·h/mL.

Question: And the AUC(0-inf) [4]?
Answer: The AUC(0-inf) was 1920 ng·h/mL.

Question: And the half-life [5]?
Answer: The half-life was 0.93 h.

Question: And the Vd [6]?
Answer: Its Vd is 1.4 L/kg.

Question: And the clearance [7]?
Answer: The clearance was 17.4 mL/min/kg.

Question: What about the Vd [8] of the same molecule?
Answer: Its Vd is 1.22 L/kg.

Question: What about the MRT [9] of the same molecule?
Answer: Its MRT is 1.16 h.

Question: What about the AUC(0-t) at 24 h [10] of the same molecule?
Answer: Its AUC(0-t) at 24 h is 1530 ng·h/mL.

Question: And the AUC(0-inf) [11]?
Answer: Its AUC(0-inf) is 1540 ng·h/mL.

Question: And the half-life [12]?
Answer: The half-life was 0.81 h.

Question: And the MRT [13]?
Answer: Its MRT is 2.48 h.

Question: What about the Tmax [14] of the same molecule?
Answer: Its Tmax is 2.33 h.

Question: And the Cmax [15]?
Answer: The Cmax was 444 ng/mL.

Question: What about the bioavailability [16] of the same molecule?
Answer: Its bioavailability is 32%.

Question: And the half-life at 1 h (in vitro [17])?
Answer: Its half-life at 1 h is 0.493 h.

Question: What about the recovery at 10 µM (in vitro [18]) of the same molecule?
Answer: The recovery at 10 µM was 86.8%.

Question: And the recovery at 10 µM (in vitro [19])?
Answer: The recovery at 10 µM was 81.2%.

Question: And the Papp A→B at 10 µM (in vitro [20])?
Answer: The Papp A→B at 10 µM was 1.9 ×10⁻⁶ cm/s.

Question: And the Papp B→A at 10 µM (in vitro [21])?
Answer: The Papp B→A at 10 µM was 3.92 ×10⁻⁶ cm/s.

Question: And the half-life (physchem [1])?
Answer: Its half-life is over 8 h.

Question: What about the half-life (physchem [22]) of the same molecule?
Answer: Its half-life is over 8 h.

Question: What about the half-life (physchem [2]) of the same molecule?
Answer: Its half-life is 24 h.

Question: What about the half-life (physchem [23]) of the same molecule?
Answer: The half-life was over 12 h.

Question: What does the source list for `C[C@H]1O[C@@H](O[C@H]2[C@@H](O)C[C@H](O[C@H]3[C@@H](O)C[C@H](O[C@H]4CC[C@@]5(C)[C@H](CC[C@@H]6[C@@H]5C[C@@H](O)[C@]5(C)[C@@H](C7=CC(=O)OC7)CC[C@]65O)C4)O[C@@H]3C)O[C@@H]2C)C[C@H](O)[C@@H]1O` [DIGOXIN]?
Answer: Papp [24]: 6.41 10^-6 cm/s; recovery at 10 µM (in vitro [18]): 105%; recovery at 10 µM (in vitro [19]): 97.9%; Papp B→A at 10 µM (in vitro [21]): 18.5 ×10⁻⁶ cm/s
